# Assay results published in patent publication US20240059961A1, “BIOCOMPATIBLE OXYGEN-SENSITIVE MATERIALS” (Promega Corporation, priority 2022, published 2024).
# Key:
# Type in all cases: cell-based
# [1] = test system: HEP-G2; assay: Oxygen consumption of HEP-G2 cells on the oxygen sensing film; conditions: HEP-G2, drug treatment
# [2] = test system: HCT-116 cells; assay: Oxygen consumption of HCT-116 cells on the oxygen sensing film
# Description: To determine the minimum number of cells necessary to observe a signal change, HCT-116 cells were titrated from 15k-120k cells/well (95k-750k cells/cm^2). The following day, the culture medium of the cells was replaced with fresh DMEM (high glucose, without phenol red), and the ratiometric fluorescence of 650/490 nm was recorded over time in a plate reader with temperature control at 37° C. […] Further experiments using drug treatments were carried out at 250k cells/cm^2.
# HCT-116 cells were seeded onto the oxygen sensing surface functionalized with 300 ug mL-1 Collagen I at 40,000 cells/well of a half-area 96-well plate (250,000 cells/cm^2). The following day, the culture medium was replaced with medium containing 2-[[4-(trifluoromethoxy)phenyl]hydrazinylidene]propanedinitrile (FCCP), an uncoupler of oxidative phosphorylation in mitochondria that increases oxygen consumption. […] HCT-116 cells were additionally treated with rotenone at 2 uM, which is an inhibitor of oxidative phosphorylation.
# [3] = test system: PC-3; assay: Oxygen consumption of PC-3 cells on the oxygen sensing film; conditions: PC-3, drug treatment
# [4] = test system: C2C12 cells; assay: Cell attachment / cellular coverage on protein-coated siloxane surface; conditions: for coating concentration sufficient to enhance the adhesion of cells to the surface: C2C12 cells on coated siloxane surface; for cellular coverage on the substrate: C2C12 seeded at 60,000 cells/cm^2, assessed the following day, covalent or passive coating, 100-3,000 ug mL-1
# Description: After silane film fabrication, the film surface was further modified with a biomacromolecule coating to enhance cell attachment. Biomacromolecules assessed for cell attachment include collagen type I (rat tail, acid extracted) and laminin. […] Passive coating of the substrate is achieved by incubating a solution of the biomacromolecule (e.g., 300 ug mL-1 collagen type I in 17 mM acetic acid) on the film for either 1 hour at room temperature or overnight at 4° C. Excess biomacromolecule was removed by washing the substrate with phosphate buffered saline (PBS).
# The surface was coated with Collagen I and Laminin, either covalently or passively. Covalent conjugation is achieved with sulfo-SANPAH conjugation method, and passive coating is achieved by incubating the siloxane surface in the presence of the protein for 1 hour at room temperature. The protein was titrated from 100 ug mL-1-3,000 ug mL-1. C2C12 cells were seeded on the coated surface at 60,000 cells/cm^2, and cellular coverage on the substrate was assessed the following day.
Molecule,oxygen consumption [1],"oxygen consumption ([2]; HCT-116, 40,000 cells/well, FCCP treatment, concentration up to 4 uM)",oxygen consumption [3],coating concentration sufficient to enhance the adhesion of cells to the surface [4],cellular coverage on the substrate [4],"oxygen consumption ([2]; HCT-116, rotenone at 2 uM)",cell attachment ([4]; passive coating of the film)
"N#CC(C#N)=NNc1ccc(OC(F)(F)F)cc1 [FCCP, 2-[[4-(trifluoromethoxy)phenyl]hydrazinylidene]propanedinitrile]",increased oxygen consumption,oxygen consumption increased with increasing FCCP concentration up to 4 uM,increased oxygen consumption,,,,
Laminin,,,,300 µg/mL,enhanced cellular coverage,,
C=C(C)[C@H]1Cc2c(ccc3c2O[C@@H]2COc4cc(OC)c(OC)cc4[C@@H]2C3=O)O1 [rotenone],decreased oxygen consumption,,decreased oxygen consumption,,,inhibited oxygen consumption,
"Collagen I: collagen type I (rat tail, acid extracted), biomacromolecule coating to enhance cell attachment",,,,300 µg/mL,enhanced cellular coverage,,sufficient for cell attachment
